Laboratory results as given in PMC7806935, “Exosite inhibition of ADAMTS-5 by a glycoconjugated arylsulfonamide” (Scientific Reports, 2021).

Biological target: T1, ADAMTS-5 MDTCS (Homo sapiens, UniProt Q9UNA0)
T1 construct: ADAMTS-5 MDTCS (lacking the C-terminal TS motif but retaining full versicanase activity); made in house; host or cells: HEK293T
T1 sequence (Q9UNA0 262-874 limits assumed): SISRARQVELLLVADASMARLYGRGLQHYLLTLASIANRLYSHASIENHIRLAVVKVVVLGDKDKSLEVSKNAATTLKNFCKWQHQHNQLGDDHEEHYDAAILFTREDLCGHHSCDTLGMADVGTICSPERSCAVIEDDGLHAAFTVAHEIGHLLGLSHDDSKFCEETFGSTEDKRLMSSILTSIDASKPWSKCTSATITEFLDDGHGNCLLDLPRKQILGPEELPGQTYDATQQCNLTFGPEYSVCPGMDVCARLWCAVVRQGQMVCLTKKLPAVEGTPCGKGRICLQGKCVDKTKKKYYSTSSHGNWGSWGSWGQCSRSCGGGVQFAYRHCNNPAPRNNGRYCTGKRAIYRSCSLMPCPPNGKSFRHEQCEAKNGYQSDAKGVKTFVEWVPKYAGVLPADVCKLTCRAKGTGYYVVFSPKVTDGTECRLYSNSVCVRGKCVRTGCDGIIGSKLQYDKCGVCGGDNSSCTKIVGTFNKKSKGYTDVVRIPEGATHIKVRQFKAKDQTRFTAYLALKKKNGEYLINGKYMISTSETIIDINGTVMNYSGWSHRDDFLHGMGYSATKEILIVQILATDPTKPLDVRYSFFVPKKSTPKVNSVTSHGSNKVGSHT
Test: Dual inhibition study (GM6001 with or without 4b, QF peptide cleavage)
Type: biochemical
Description: Figure 3 Compound 4b binds to the ADAMTS-5 Mp/Dis domains in the presence of GM6001. (A, B) Compound 4b inhibits versicanase activity of both full-length (FL) ADAMTS-5 and its variant containing only the Mp/Dis domains (ADAMTS-5 MD). Compound 4b (100 μM) or DMSO was incubated either with ADAMTS-5 FL (0.2 nM, A) or ADAMTS-5 MD (26 nM, B) for 2 h at 37 °C before addition of V1-5GAG (50 nM). At each time point, reactions were stopped by addition of EDTA and versikine fragments quantified by sandwich ELISA as reported in the Methods section. In the DMSO control, complete proteolysis was achieved after 7200 s. […]
QF peptide cleavage assays were conducted in 96-well black microtiter plates (Scientific Laboratories Supplies Ltd, Wilford, UK) using a Fluostar Omega microplate reader (BMG Labtech, Aylesbury, UK). The activity of ADAMTS-4 (1 nM) and -5 (5 nM) was monitored for 2 h using the fluorescent peptide substrates fluorescein 5(6)-carbonyl-Ala-Glu-Leu-[…]-Gly-Arg-Pro-Ile-Ser-Ile-Ala-Lys-N,N,N0,N0-tetramethyl-6-carboxyrhodamine-NH2 (FAM-AE ~ LQGRPISIAK-TAMRA, ADAMTS-4) and fluorescein 5(6)-carbonyl-Thr-Glu-Ser-Glu ~ Ser-Arg-Gly-Ala-Ile-Tyr-Lys-Lys-N,N,N0,N0-tetramethyl-6-carboxyrhodamine-NH2 (FAM-TESE ~ SRGAIYKK-TAMRA, ADAMTS-5) (custom-synthesized by Bachem, Bubendorf, Switzerland) with an excitation wavelength of 485 nm and an emission wavelength of 538 nm. […]

CNC(=O)[C@H](Cc1c[nH]c2ccccc12)NC(=O)[C@@H](CC(=O)NO)CC(C)C [GM6001]
IC50 (QF peptide, DMSO, no 4b, read-out: IC50^− (in the absence of 4b)): 370 ± 90 nM | IC50^+/IC50^− (ratio with/without 10 μM 4b, < 1 synergistic): 0.043
